The source of these data is US10376465B2, “Monovalent metal cation dry powders for inhalation” (priority 2010, dated 2019).

Data set [1] in a line: Solubility of salts and drugs in water / ethanol. Format: physicochemical. The text has this: Spray drying homogenous particles requires that the ingredients of interest be solubilized in solution or suspended in a uniform and stable suspension. Most of the materials mentioned in the material section are sufficiently water-soluble to prepare suitable spray drying solutions. […] As a result of these low solubilities, formulation feedstock development work was necessary to prepare solutions or suspensions that could be spray dried.
For the spray drying process, the salts, excipients and other drugs were dissolved or suspended in a solvent (e.g., water). The solid concentrations (w/v) were chosen dependent on the solubility of the different components (see Table 2). The ratios used for formulations were based on the molecular weight of the anhydrous salts (see Table 3).

Data set [2] concerns mice sensitized and challenged with ovalbumin (OVA). The note with it: literature (Riesenfeld 2010); cited from earlier work.

SMILES strings stand for the structures. Where two headings read alike, the source gives them in different places.

Consider `CCC(=O)O[C@]1(C(=O)SCF)[C@H](C)C[C@H]2[C@@H]3C[C@H](F)C4=CC(=O)C=C[C@]4(C)[C@@]3(F)[C@@H](O)C[C@@]21C` [Fluticasone propionate, fluticasone propionate], for which, in data set [1], the solubility in ethanol result was “slightly soluble” and the solubility in water entry is given as “practically insoluble”. For the same compound, the “eosinophilic cells and total cellularity in the mouse OVA model” value in data set [2] is “reduce eosinophilic cells and total cellularity”.
Turning to `OCc1cc(C(O)CNCCCCCCOCCCCc2ccccc2)ccc1O` (stereo not shown) [salmeterol xinafoate], in data set [1] (in words), the solubility in ethanol result is reported as “slightly soluble” and the solubility in water result is given as “practically insoluble”.
As to `CCCC1O[C@@H]2C[C@H]3[C@@H]4CCC5=CC(=O)C=C[C@]5(C)[C@H]4[C@@H](O)C[C@]3(C)[C@]2(C(=O)CO)O1` (stereo partly shown) [Budesonide, budesonide], in data set [1], the solubility in ethanol result is “slightly soluble” and the solubility in water result is “practically insoluble”.
